Measurements: patent publication US11466047B2, “Cyclic di-nucleotide compounds as sting agonists” (Merck Sharp & Dohme Corp., priority 2017, dated 2022)
Where two headings read alike, the source gives them in different places.

Columns and labels:
THP1 cells = test: IFN-β secretion in THP1 cell culture (5 h); assay type: cell-based, human; conditions: 30 μM compound, relative to 2′3′-cGAMP at 30 μM; for activation at 30 µM: Homo sapiens, THP-1, 5 h, read-out: % Effect at 30 μM relative to 2′3′-cGAMP
Procedure: The ability of compounds to stimulate the secretion of interferon-beta from THP1 cells was measured using a human IFN-β AlphaLISA kit (Perkin Elmer, Cat. No. AL265F). The basic protocol is as follows:
A Labcyte Echo 550 acoustic dispenser was used to transfer 120 nL of compound dissolved in DMSO into the wells of an empty, sterile 384-well microplate, (Corning, Cat. No. 3712). THP1 cells (American Type Culture Collection, Cat. No. TIB202) previously frozen in Recovery Medium (Life Technologies, Cat. No. 12648-010) were thawed and immediately diluted 10-fold into 37° C. assay medium (RPMI 1640+L-Glutamine & phenol red, Life Technologies, Cat. No. 11875-085; 0.5% heat inactivated fetal bovine serum, Sigma Aldrich, Cat. No. F4135; 1 mM Sodium Pyruvate, Life Technologies, Cat. No. 11360-070; lx non-essential amino acids; Life Technologies, Cat. No. 11140-050). The cell viability and count was ascertained using a Beckman Coulter V-Cell XR cell counter. The cell suspension was centrifuged at 200×g for 5 min at RT. Cells were resuspended to a density of 0.8×10^6/mL in 37° C. assay medium. Subsequent liquid transfers were performed using either a Matrix electronic multichannel pipette or an Agilent Bravo Automated Liquid Handling Platform.
The assay was started by dispensing 40 μL of the previously prepared cell suspension into the wells of the plate containing compounds. After 5 h incubation at 37° C., 5% CO2 in a humidified atmosphere, the plate of cells and compounds was centrifuged at 200×g for 5 min at RT. From each well, 5 μL of supernatant was transferred into corresponding wells of a white 384-well plate (Perkin Elmer, Cat. No. 6005620). To these supernatant-containing wells was added 10 μL of 5× Anti-Analyte Acceptor beads (50 μg/mL of AlphaLISA HiBlock Buffer) and incubated for 30 min at RT while shaking on an orbital plate shaker. To each well was added 10 μL of 5× Biotinylated Antibody Anti-analyte (5 nM in AlphaLISA HiBlock Buffer) and incubated on an orbital plate shaker for 60 min at RT or overnight at 4° C. To each well was added 25 μL of 2×SA-Donor beads (80 μg/mL in AlphaLISA HiBlock Buffer) and incubated for 30-45 min at RT in the dark while shaking on an orbital plate shaker. The plate was then read on a Perkin Elmer Envision (λex=680 nm, λem=570 nm). The percent effect of the AlphaLISA signal at each compound concentration was calculated based on 30 uM cGAMP positive controls and 0.3% DMSO negative controls. The plot of percent effect versus the log of compound concentration was fit with a 4-parameter concentration response equation to calculate EC50 values. The test compounds were tested at concentrations 30000, 10000, 3333, 1111, 370.4, 123.4, 41.2, 13.7, 4.6, and 1.5 nM with 0.3% residual DMSO. The control compound, cGAMP was tested at concentrations 100000, 33333, 11111, 3704, 1235, 412, 137, 46, and 15 nM with 0.3% residual DMSO.
Compounds of the disclosure were evaluated for IFN-β secretion in THP1 cell culture as described above. The following table tabulates the biological data for these compounds as percent activation relative to 2′3′-cGAMP at the 30 μM concentration.

full-length WT STING = full-length WT STING (Homo sapiens (Human), UniProt Q86WV6, H232R); test: 3H-cGAMP filtration binding assay (WT STING); conditions: WT STING membrane
Sequence of full-length WT STING (Q86WV6 whole entry, looked up, stated change not applied): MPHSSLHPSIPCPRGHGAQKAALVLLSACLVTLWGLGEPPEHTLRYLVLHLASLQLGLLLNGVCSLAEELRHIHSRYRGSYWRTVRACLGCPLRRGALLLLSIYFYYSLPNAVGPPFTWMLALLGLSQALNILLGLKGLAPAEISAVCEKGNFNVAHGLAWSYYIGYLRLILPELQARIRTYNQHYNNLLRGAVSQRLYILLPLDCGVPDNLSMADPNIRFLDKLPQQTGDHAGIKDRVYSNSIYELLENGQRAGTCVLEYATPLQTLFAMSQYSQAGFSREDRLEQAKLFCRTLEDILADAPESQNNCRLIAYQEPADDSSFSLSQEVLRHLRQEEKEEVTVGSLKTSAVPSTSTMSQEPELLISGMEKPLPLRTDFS
Procedure: The ability of compounds to bind STING is quantified by their ability to compete with tritiated cGAMP ligand for human STING receptor membrane using a radioactive filter-binding assay. The binding assay employs STING receptor obtained from Trichoplusia ni cell membranes (T.ni; Expression Systems, cat #94-002F, overexpressing full-length WT STING and tritiated cGAMP ligand.
The basic WT STING filtration assay protocol is as follows:
16 nM of [^3H] c-GAMP ligand was prepared by diluting into assay buffer, and 50 uL of this working stock was manually added to each well of the assay plate. After ligand addition, 2 uL of either titrated test compound, DMSO control (Sigma #276855), or cold cGAMP control was added to the appropriate wells using a BIOMEK FX. The serially titrated compound was prepared on a Hamilton STARPlus CORE in a 96-well plate (Greiner, #651201) using a 1:3 ten-point dose response format. Following compound addition, a 2.2 ug/ml working concentration of STING membrane (SEQ. ID. No. 3) was prepared by diluting concentrated membrane into assay buffer (1×PBS; Invitrogen #SH30028.02) and douncing 7× using a manual tissue homogenizer (Wheaton, #357546). 148 uL of this prepared membrane was then manually added to each well of a 96-well deep-well polypropylene plate (Fisher Scientific, #12-566-121). Compound, ligand, and membrane then incubated for 60 min at RT before the contents of each assay plate were filtered through a 96-well GF/B filter plate (PerkinElmer, #6005250) using a TOMTEC MACH III Cell Harvester equipped with 20 mM HEPES buffer (Fisher Scientific, #BP299500). The filter plates were then dried at 55° C. for 30 min using a pressurized VWR oven before 30 uL of ULTIMA GOLD F scintillate was added to each well. Tritium levels for each reaction well were then measured using a PerkinElmer TopCount plate reader.
After normalization to controls, the percent activity for each compound concentration was calculated by measuring the amount of remaining radioactivity. The plot of percent activity versus the log of compound concentration was fit with a 4-parameter dose response equation to calculate EC50 values.

[1] = competition with tritiated cGAMP ligand, read-out: EC50

Row | Structure (SMILES) | activation at 30 µM (THP1 cells) [%] | EC50 (full-length WT STING; [1]) [nM] | % Effect at 30 μM relative to 2′3′-cGAMP (THP1 cells) [%] | EC50 (full-length WT STING; EC50, competition with tritiated cGAMP ligand) [nM]
1 | Nc1nc2c(ncn2[C@@H]2O[C@@H]3COP(O)(=S)O[C@H]4C[C@H](n5cnc6c(=O)[nH]cnc65)O[C@@H]4COP(=S)(S)O[C@@H]2C3)c(=O)[nH]1 (stereo partly drawn) [Example 26, 2-amino-9-[(5S,7R,8R,12aR,14R,15aS)-2-hydroxy-14-(6-oxo-1,6-dihydro-9H-purin-9-yl)-10-sulfanyl-2,10-disulfidooctahydro-12H-5,8-methanofuro[3,2-1][1,3,6,9,11,2,10]pentaoxadiphosphacyclotetradecin-7-yl]-1,9-dihydro-6H-purin-6-one] | 75 | 409 | – | –
2 | Nc1nc2c(ncn2[C@@H]2O[C@@H]3COP(O)(=S)O[C@H]4C[C@H](n5cnc6c(N)ncnc65)O[C@@H]4COP(=S)(S)O[C@@H]2C3)c(=O)[nH]1 (single isomer, unassigned) [Example 10] | – | – | 91 | 6
3 | Nc1nc2c(ncn2[C@@H]2O[C@@H]3COP(=S)(S)O[C@H]4C[C@H](n5cnc6c(=O)[nH]cnc65)O[C@@H]4COP(O)(=S)O[C@@H]2C3)c(=O)[nH]1 (single isomer, unassigned) [Example 25] | – | 2 | 281 | –
4 | Nc1nc2c(ncn2[C@@H]2O[C@@H]3COP(O)(=S)O[C@H]4[C@H](F)[C@H](n5cnc6c(N)ncnc65)O[C@@H]4COP(=S)(S)O[C@@H]2[C@@H]3F)c(=O)[nH]1 (single isomer, unassigned) [Example 12] | – | 171 | 116 | –
5 | Nc1nc2c(ncn2[C@@H]2O[C@@H]3COP(=S)(S)O[C@H]4C[C@H](n5cnc6c(N)ncnc65)O[C@@H]4COP(=O)(O)O[C@@H]2C3)c(=O)[nH]1 (stereo partly drawn) [Example 18, 2-amino-9-[(5S,7R,8R,12aR,14R,15aS)-14-(6-amino-9H-purin-9-yl)-10-hydroxy-10-oxido-2-sulfanyl-2-sulfidooctahydro-12H-5,8-methanofuro[3,2-1][1,3,6,9,11,2,10]pentaoxadiphosphacyclotetradecin-7-yl]-1,9-dihydro-6H-purin-6-one] | 153 | 1 | – | –
6 | Nc1nc2c(ncn2[C@@H]2O[C@@H]3COP(=S)(S)O[C@H]4[C@H](F)[C@H](n5cnc6c(N)ncnc65)O[C@@H]4COP(=O)(O)O[C@@H]2[C@@H]3F)c(=O)[nH]1 (stereo partly drawn) [Example 19, 2-amino-9-[(5R,7R,8S,12aR,14R,15S, 15aR,16R)-14-(6-amino-9H-purin-9-yl)-15,16-difluoro-10-hydroxy-10-oxido-2-sulfanyl-2-sulfidooctahydro-12H-5,8-methanofuro[3,2-1][1,3,6,9,11,2,10]pentaoxadiphosphacyclotetradecin-7-yl]-1,9-dihydro-6H-purin-6-one] | 250 | 1 | – | –
7 | Nc1nc2c(ncn2[C@@H]2O[C@@H]3COP(=O)(O)O[C@H]4C[C@H](n5cnc6c(N)ncnc65)O[C@@H]4COP(=S)(S)O[C@@H]2C3)c(=O)[nH]1 (stereo partly drawn) [Example 23, 2-amino-9-[(5S,7R,8R,12aR,14R,15aS)-14-(6-amino-9H-purin-9-yl)-2-hydroxy-2-oxido-10-sulfanyl-10-sulfidooctahydro-12H-5,8-methanofuro[3,2-1] [1,3,6,9,11,2,10]pentaoxadiphosphacyclotetradecin-7-yl]-1,9-dihydro-6H-purin-6-one] | 152 | 69 | – | –
8 | Nc1nc2c(ncn2[C@@H]2O[C@@H]3COP(=S)(S)O[C@H]4[C@H](F)[C@H](n5cnc6c(=O)[nH]cnc65)O[C@@H]4COP(O)(=S)O[C@@H]2[C@@H]3F)c(=O)[nH]1 (stereo partly drawn) [Example 27, 2-amino-9-[(5R,7R,8S,12aR,14R,15S,15aR,16R)-15,16-difluoro-10-hydroxy-14-(6-oxo-1,6-dihydro-9H-purin-9-yl)-2-sulfanyl-2,10-disulfidooctahydro-12H-5,8-methanofuro[3,2-1][1,3,6,9,11,2,10]pentaoxadiphosphacyclotetradecin-7-yl]-1,9-dihydro-6H-purin-6-one] | 164 | – | – | –
